In brackets after ≈: the same amount, converted by molar mass. Activity calls are given as the source filed them. The rule behind the calls is not given here.

Results on 14 compounds are retold here after ChEMBL document CHEMBL3763124, “N-Benzylbenzamides: A Novel Merged Scaffold for Orally Available Dual Soluble Epoxide Hydrolase/Peroxisome Proliferator-Activated Receptor γ Modulators” (J Med Chem, 2016).

One series deals with T1, Bifunctional epoxide hydrolase 2 (Homo sapiens, UniProt P34913).
T1 sequence (P34913 whole entry): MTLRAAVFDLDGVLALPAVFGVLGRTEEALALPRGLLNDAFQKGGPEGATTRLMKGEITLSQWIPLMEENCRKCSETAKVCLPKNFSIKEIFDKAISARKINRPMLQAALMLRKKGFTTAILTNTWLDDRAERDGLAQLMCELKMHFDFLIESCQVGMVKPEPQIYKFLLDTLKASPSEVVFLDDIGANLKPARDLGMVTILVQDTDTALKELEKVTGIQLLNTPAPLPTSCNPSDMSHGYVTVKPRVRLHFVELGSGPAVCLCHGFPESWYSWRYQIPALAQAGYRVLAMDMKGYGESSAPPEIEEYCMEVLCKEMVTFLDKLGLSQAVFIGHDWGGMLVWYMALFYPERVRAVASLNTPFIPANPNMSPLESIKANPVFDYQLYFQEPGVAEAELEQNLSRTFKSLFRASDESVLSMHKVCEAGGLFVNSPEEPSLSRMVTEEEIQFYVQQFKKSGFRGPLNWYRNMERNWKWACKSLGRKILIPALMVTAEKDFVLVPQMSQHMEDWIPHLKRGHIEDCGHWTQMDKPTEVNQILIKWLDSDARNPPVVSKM
Put plainly: Inhibition of human recombinant sEH using PHOME as substrate preincubated for 30 mins followed by substrate addition measured for 30 mins by fluorescence-based assay.
Conditions: not given
`CCC(Cc1ccc(C(=O)NCc2ccc(Cl)cc2)cc1)C(=O)O` (stereo not drawn): the IC50 turned out to be 1500 nM.
Turning to `CCC(Cc1ccc(C(=O)NCc2ccc(OC(F)(F)F)cc2)cc1)C(=O)O` (stereo not drawn), the IC50 is 14000 nM.
On the same count and under the same terms, with `CCOC(=O)C(CC)Cc1ccc(C(=O)NCc2ccccc2OC(F)(F)F)cc1` (stereo not drawn) the figure was 30 nM; with `CCOC(=O)C(CC)Cc1ccc(C(=O)NCc2ccc(OC(F)(F)F)cc2)cc1` (stereo not drawn), 900 nM.
Still for that read-out and setting: the result for `CCOC(=O)C(CC)Cc1ccc(C(=O)NCc2ccccc2Cl)cc1` (stereo not drawn) reads 3800 nM.
Still for that read-out and setting: the result for `CCOC(=O)C(CC)Cc1ccc(C(=O)NCc2ccccc2)cc1` (stereo not drawn) reads 8500 nM.
As to `CCC(Cc1ccc(C(=O)NCc2ccc(F)cc2C(F)(F)F)cc1)C(=O)O` (stereo not drawn), the concentration for half-maximal inhibition (IC50) amounted to 1200 nM.
As for `CCOC(=O)C(CC)Cc1ccc(C(=O)NCc2ccc(Cl)cc2)cc1` (stereo not drawn), the IC50 amounted to 1700 nM.
As for `CCOC(=O)C(CC)Cc1ccc(C(=O)NCc2ccc(F)cc2)cc1` (stereo not drawn), the IC50 came to 2200 nM.
Still for that read-out and setting: with `CCOC(=O)C(CC)Cc1ccc(C(=O)NCc2ccc(F)cc2C(F)(F)F)cc1` (stereo not drawn) the figure was 120 nM; with `CCOC(=O)C(CC)Cc1ccc(C(=O)NCc2ccc(OC)cc2)cc1` (stereo not drawn), 620 nM.

In the next series the target is T2, Peroxisome proliferator-activated receptor alpha (Homo sapiens, UniProt Q07869).
T2 sequence (Q07869 whole entry): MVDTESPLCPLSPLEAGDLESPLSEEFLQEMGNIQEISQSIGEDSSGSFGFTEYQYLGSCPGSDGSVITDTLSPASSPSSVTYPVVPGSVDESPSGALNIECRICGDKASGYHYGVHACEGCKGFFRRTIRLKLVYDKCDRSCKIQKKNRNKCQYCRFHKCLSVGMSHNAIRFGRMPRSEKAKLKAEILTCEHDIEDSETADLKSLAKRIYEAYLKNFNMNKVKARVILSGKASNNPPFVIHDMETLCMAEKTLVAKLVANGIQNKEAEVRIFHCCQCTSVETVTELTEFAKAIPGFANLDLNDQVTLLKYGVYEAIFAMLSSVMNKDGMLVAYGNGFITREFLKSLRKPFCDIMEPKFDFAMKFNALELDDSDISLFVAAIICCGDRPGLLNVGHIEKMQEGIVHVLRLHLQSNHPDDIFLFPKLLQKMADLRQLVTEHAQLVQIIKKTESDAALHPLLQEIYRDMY
To be noted: cos-7.
Description: Transactivation of human PPARalpha expressed in African green monkey COS7 cells incubated overnight by dual-glo luciferase reporter gene assay
`O=C(O)CCc1ccc(C(=O)NCc2ccccc2C(F)(F)F)cc1`: the EC50 result was “Not Active”.
Still for that read-out and setting: with `CCC(Cc1ccc(C(=O)NCc2ccc(Cl)cc2)cc1)C(=O)O` (stereo not drawn) the entry was “Not Active”; with `CCC(Cc1ccc(C(=O)NCc2ccccc2C)cc1)C(=O)O` (stereo not drawn), “Not Active”.
Same read-out and setting: the result for `CCOC(=O)C(Cc1ccc(C(=O)NCc2ccccc2C(F)(F)F)cc1)c1ccccc1` (stereo not drawn) reads “Not Active”.
On the same count and under the same terms, the result for `CCOC(=O)C(CC)Cc1ccc(C(=O)NCc2ccccc2OC(F)(F)F)cc1` (stereo not drawn) reads “Not Active”.
Turning to `CCOC(=O)C(CC)Cc1ccc(C(=O)NCc2ccccc2Cl)cc1` (stereo not drawn), the EC50 result is “Not Active”.
For the compound `CCOC(=O)C(CC)Cc1ccc(C(=O)NCc2ccccc2)cc1` (stereo not drawn), the EC50 entry is “Not Active”.
On to `CCC(Cc1ccc(C(=O)NCc2ccc(F)cc2C(F)(F)F)cc1)C(=O)O` (stereo not drawn), for which the EC50 result was “Not Active”.
The same measure, in the same setting: with `CCOC(=O)C(CC)Cc1ccc(C(=O)NCc2ccc(Cl)cc2)cc1` (stereo not drawn) the entry was “Not Active”.
The same measure, in the same setting: with `CCOC(=O)C(CC)Cc1ccc(C(=O)NCc2ccc(F)cc2)cc1` (stereo not drawn) the entry was “Not Active”.
On the same count and under the same terms, the result for `CCOC(=O)C(CC)Cc1ccc(C(=O)NCc2ccc(F)cc2C(F)(F)F)cc1` (stereo not drawn) reads “Not Active”.
For `CCOC(=O)C(CC)Cc1ccc(C(=O)NCc2ccc(OC)cc2)cc1` (stereo not drawn), the EC50 entry was “Not Active”.

The next series deals with T3, Peroxisome proliferator-activated receptor delta (Homo sapiens) (UniProt Q03181).
T3 sequence (whole entry): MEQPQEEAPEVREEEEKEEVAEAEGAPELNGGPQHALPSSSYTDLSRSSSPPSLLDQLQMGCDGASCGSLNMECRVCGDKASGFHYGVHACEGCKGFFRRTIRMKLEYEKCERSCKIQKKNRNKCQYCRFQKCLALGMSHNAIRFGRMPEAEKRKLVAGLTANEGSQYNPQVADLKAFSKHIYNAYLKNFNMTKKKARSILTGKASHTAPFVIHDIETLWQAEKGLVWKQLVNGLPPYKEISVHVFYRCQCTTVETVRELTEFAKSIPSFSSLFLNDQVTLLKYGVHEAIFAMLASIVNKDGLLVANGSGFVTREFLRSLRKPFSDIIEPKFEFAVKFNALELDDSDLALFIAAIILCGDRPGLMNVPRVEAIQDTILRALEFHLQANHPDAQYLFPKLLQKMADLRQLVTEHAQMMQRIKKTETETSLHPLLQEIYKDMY
In words: Transactivation of human PPARdelta expressed in African green monkey COS7 cells at 10 uM incubated overnight by dual-glo luciferase reporter assay. The format is cell-based. To be noted: COS-7. Background: Reporter assays use an easily measured gene product as a stand-in for the process of interest.
Take `O=C(O)CCc1ccc(C(=O)NCc2ccccc2C(F)(F)F)cc1`: the Emax result is “inactive”.
Still for that read-out and setting: the result for `CCOC(=O)C(Cc1ccc(C(=O)NCc2ccccc2C(F)(F)F)cc1)c1ccccc1` (stereo not drawn) reads “inactive”.

Tested on in a further series: not listed separately
Put plainly: Solubility of the compound in water by microplate reader analysis. The format is physicochemical.
Conditions: not given
In the case of `O=C(O)CCc1ccc(C(=O)NCc2ccccc2C(F)(F)F)cc1`, the solubility stood at 375 µM (≈ 132 µg/mL).
With `CCC(Cc1ccc(C(=O)NCc2ccc(Cl)cc2)cc1)C(=O)O` (stereo not drawn), the solubility turned out to be 375 µM (≈ 130 µg/mL).
The same measure, in the same setting: with `CCOC(=O)C(Cc1ccc(C(=O)NCc2ccccc2C(F)(F)F)cc1)c1ccccc1` (stereo not drawn) the figure was 3.75 µM (≈ 1.71 µg/mL); with `CCOC(=O)C(CC)Cc1ccc(C(=O)NCc2ccccc2OC(F)(F)F)cc1` (stereo not drawn), 75 µM (≈ 31.8 µg/mL); with `CCOC(=O)C(CC)Cc1ccc(C(=O)NCc2ccc(Cl)cc2)cc1` (stereo not drawn), 7.5 µM (≈ 2.8 µg/mL).
Compound `CCOC(=O)C(CC)Cc1ccc(C(=O)NCc2ccc(OC)cc2)cc1` (stereo not drawn) returned a solubility of 7.5 µM (≈ 2.77 µg/mL).

Another series concerns the target T4, Peroxisome proliferator-activated receptor delta (Homo sapiens, UniProt Q03181).
T4 sequence (Q03181 whole entry): T3 sequence (whole entry)
Put plainly: Transactivation of human PPARdelta expressed in African green monkey COS7 cells incubated overnight by dual-glo luciferase reporter gene assay. The note with it: cos-7. The class given is cell-based.
As for `O=C(O)CCc1ccc(C(=O)NCc2ccccc2C(F)(F)F)cc1`, the EC50 entry is on record as “Not Active”.
Same read-out and setting: with `CCC(Cc1ccc(C(=O)NCc2ccc(Cl)cc2)cc1)C(=O)O` (stereo not drawn) the entry was “Not Active”; with `CCC(Cc1ccc(C(=O)NCc2ccccc2C)cc1)C(=O)O` (stereo not drawn), “Not Active”; with `CCOC(=O)C(Cc1ccc(C(=O)NCc2ccccc2C(F)(F)F)cc1)c1ccccc1` (stereo not drawn), “Not Active”.
Same read-out and setting: with `CCC(Cc1ccc(C(=O)NCc2ccc(OC(F)(F)F)cc2)cc1)C(=O)O` (stereo not drawn) the entry was “Not Active”; with `CCOC(=O)C(CC)Cc1ccc(C(=O)NCc2ccccc2OC(F)(F)F)cc1` (stereo not drawn), “Not Active”; with `CCOC(=O)C(CC)Cc1ccc(C(=O)NCc2ccc(OC(F)(F)F)cc2)cc1` (stereo not drawn), “Not Active”.
On the same count and under the same terms, the result for `CCOC(=O)C(CC)Cc1ccc(C(=O)NCc2ccccc2Cl)cc1` (stereo not drawn) reads “Not Active”.
For `CCOC(=O)C(CC)Cc1ccc(C(=O)NCc2ccccc2)cc1` (stereo not drawn), the EC50 entry was “Not Active”.
`CCC(Cc1ccc(C(=O)NCc2ccc(F)cc2C(F)(F)F)cc1)C(=O)O` (stereo not drawn): the EC50 entry is recorded as “Not Active”.
As to `CCOC(=O)C(CC)Cc1ccc(C(=O)NCc2ccc(Cl)cc2)cc1` (stereo not drawn), the EC50 result was “Not Active”.
On to `CCOC(=O)C(CC)Cc1ccc(C(=O)NCc2ccc(F)cc2)cc1` (stereo not drawn), for which the EC50 result is listed as “Not Active”.
For `CCOC(=O)C(CC)Cc1ccc(C(=O)NCc2ccc(F)cc2C(F)(F)F)cc1` (stereo not drawn), the EC50 result is “Not Active”.
`CCOC(=O)C(CC)Cc1ccc(C(=O)NCc2ccc(OC)cc2)cc1` (stereo not drawn): the EC50 result is reported as “Not Active”.

Another series addresses T5, Bifunctional epoxide hydrolase 2 (Homo sapiens) (UniProt P34913).
T5 sequence (whole entry): T1 sequence (P34913 whole entry)
In words: Inhibition of human recombinant sEH using PHOME as substrate at 10 uM preincubated for 30 mins followed by substrate addition measured for 30 mins by fluorescence-based assay.
Conditions: not given
Regarding `CCC(Cc1ccc(C(=O)NCc2ccccc2C)cc1)C(=O)O` (stereo not drawn), the inhibition stood at 25%.

In the next series the target is T6, Peroxisome proliferator-activated receptor alpha (Homo sapiens) (UniProt Q07869).
T6 sequence (whole entry): T2 sequence (Q07869 whole entry)
Put plainly: Transactivation of human PPARalpha expressed in African green monkey COS7 cells incubated overnight by dual-glo luciferase reporter assay relative to GW7647. The class given is cell-based. To be noted: COS-7.
For the compound `O=C(O)CCc1ccc(C(=O)NCc2ccccc2C(F)(F)F)cc1`, the Emax entry was “inactive”.
Same read-out and setting: the result for `CCC(Cc1ccc(C(=O)NCc2ccc(Cl)cc2)cc1)C(=O)O` (stereo not drawn) reads “inactive”; that for `CCC(Cc1ccc(C(=O)NCc2ccccc2C)cc1)C(=O)O` (stereo not drawn), “inactive”; that for `CCOC(=O)C(Cc1ccc(C(=O)NCc2ccccc2C(F)(F)F)cc1)c1ccccc1` (stereo not drawn), “inactive”.
`CCOC(=O)C(CC)Cc1ccc(C(=O)NCc2ccccc2OC(F)(F)F)cc1` (stereo not drawn): the Emax result is “inactive”.
Regarding `CCOC(=O)C(CC)Cc1ccc(C(=O)NCc2ccccc2Cl)cc1` (stereo not drawn), the Emax result is “inactive”.
As to `CCOC(=O)C(CC)Cc1ccc(C(=O)NCc2ccccc2)cc1` (stereo not drawn), the Emax entry is “inactive”.
In the case of `CCC(Cc1ccc(C(=O)NCc2ccc(F)cc2C(F)(F)F)cc1)C(=O)O` (stereo not drawn), the Emax result is “inactive”.
On the same count and under the same terms, with `CCOC(=O)C(CC)Cc1ccc(C(=O)NCc2ccc(Cl)cc2)cc1` (stereo not drawn) the entry was “inactive”; with `CCOC(=O)C(CC)Cc1ccc(C(=O)NCc2ccc(F)cc2)cc1` (stereo not drawn), “inactive”; with `CCOC(=O)C(CC)Cc1ccc(C(=O)NCc2ccc(F)cc2C(F)(F)F)cc1` (stereo not drawn), “inactive”.
Take `CCOC(=O)C(CC)Cc1ccc(C(=O)NCc2ccc(OC)cc2)cc1` (stereo not drawn): the Emax entry was “inactive”.

As a reminder, the IC50 is the concentration at which inhibition is half-maximal. As usually defined, the solubility is the concentration that dissolves in the medium under given conditions. By inhibition is commonly meant the drop in the measured response relative to a control, in per cent.
